Measured values reported in US7744590B2, “Red to near-infrared photobiomodulation treatment of the visual system in visual system disease or injury” (Medical College of Wisconsin Research Foundation, Inc., priority 2003, dated 2010).

What was measured:
[1] = tested on: methanol-intoxicated rats; assay: Rod and M-cone (15 Hz/510 nm) ERG after 72 hours of methanol intoxication; type: in vivo, rat
Protocol: (§1) Methanol-intoxication Protocol.
(§2) Light-Emitting Diode Treatment.
ERG Procedures and Analyses.
All sensitivity measures were made in triplicate.
15 Hz/510 nm ERG Response. ERGs were recorded in response to a 15-Hz flickering light at a wavelength of 510 nm over a 3-log unit range of light intensity.

[2] = tested on: methanol-intoxicated rats; assay: Retinal histopathology by light and electron microscopy; conditions: rat, in vivo
From the text: as §1, §2
Histopathologic Analysis.

[3] = tested on: methanol-intoxicated rats
Protocol: Animals were randomly assigned to one of four treatment groups: (1) Untreated control, (2) LED-treated control, (3) methanol-intoxicated and (4) LED-treated methanol-intoxicated rats. Rats were placed in a thermostatically controlled plexiglass chamber (22×55×22 cm; maintained at 22-23° C.) and exposed to a mixture of N2O/O2 (1:1; flow rate 2 liters/min) for the duration of the experiment. […] In the present studies, methanol (25% w/v methanol in saline) was administered (i.p.) to N2O/O2 treated rats at an initial dose of dose 4 g/kg, followed by supplemental doses of 1.5 g/kg at 24 and 48 hours.
Light-Emitting Diode Treatment. […] Rats were placed in a plexiglass restraint device (12.7×9×7.6 cm). The LED array was positioned directly over the animal at a distance of 1 inch, exposing the entire body. Treatment consisted of irradiation at 670 nm for 2 minutes and 24 seconds resulting in a power intensity of 28 mW/cm^2 and an energy density of 4 joules/cm^2 at 5, 25 and 50 hours after the initial dose of methanol.
ERG Procedures and Analyses. ERG experiments were performed as previously described (M. T. Seme, et al., supra, 1999; M. T. Seme, et al., supra, 2001). The light stimulation apparatus consisted of a three-beam optical system. All three beams were derived from tungsten-halide lamps (50 W, 12 V). Beam intensity was controlled by using neutral density step filters. ERG recordings were differentially amplified and computer-averaged. The amplified signal was processed through a two-stage active narrow bandpass filter (the half voltage of this filter was 0.2 times the center frequency). […] The averaged responses were measured (peak-to-trough amplitude) from a calibrated digital oscilloscope display.
Before ERG analysis, ophthalmoscopic examination confirmed that all eyes were free of lenticular opacities or other gross anomalies. […] The stimulus intensity yielding a 5-μV criterion response was determined by extrapolating between the two intensity points that bracketed the 5-μV response for each animal.

Compound: CO [methanol, Methanol]
- increase of 5 μV threshold light intensity relative to control, 15-Hz/510-nm ERG [1]: 0.6 log units
- maximal 15-Hz/510-nm ERG amplitude ([1]; 72 hours, no LED): 18±5 μV
- maximal rod and M-cone ERG amplitude as % of the maximum control response ([1]; 72 hours, no LED): approximately 28%
- light intensity required to elicit a threshold (5 μV) 15-Hz/510-nm ERG response ([1]; controls −3.0±0.1 LRRI): −2.4±0.1 LRRI
- outer retinal histopathology [2]: Pronounced histopathologic changes
- increase of light intensity required for a 5-μV UV-cone response [3]: 0.5 log units
- maximal UV-cone ERG response amplitude ([3]; 72 hours, no LED): 18±6 μV
- maximal UV-cone ERG amplitude as % of the maximum control response ([3]; no LED): 30%
